Experimental data reported in patent publication US6436660B1, “Identification of novel antimicrobial agents using metabolic oxidation-reduction indicator dyes” (XOMA Technology Ltd., priority 1999, dated 2002).

What was measured:
[1] = system: E. coli (ATCC strain 8739); assay: Effect of antibacterial compounds on bacteria with Alamar Blue (colorimetric OD595 assay); type: cell-based; details: for bacteria; summary statement
Protocol: E. coli (ATCC strain 8739) was incubated at 37° C. in 5 mL cation-adjusted Mueller Hinton Broth (CAMHB) for 3 hours to attain log phase growth. The bacteria were pelleted in a Sorvall RT6000B centrifuge for 5 minutes at 3,000 rpm (1.500×g ) and resuspended in 5 mL of fresh CAMHB. A 1:10 dilution was performed for an OD570 nm determination. One OD unit equals 1.25×10^9 CFU/mL. The bacterial suspension was adjusted to 1×10^8 CFU/mL.
This was done in triplicate with each well containing a volume of 100 μL. An equal volume of the bacterial suspension was added to each well. […] Alamar Blue™ was added at 20 μL per well. The “Blank” contained media and Alamar Blue™ only, without cells.
OD595 nm readings were performed in a Molecular Devices plate reader. This required that samples be centrifuged to pellet bacteria and related debris which would contribute to the OD595 nm reading. 150 μL were removed from the wells at various timepoints, centrifuged (2 minutes, 2,000 rpm) and 50 μL of supernatant was carefully transferred to a fresh 96-well plate for the reading. Timepoints were read at 0, 30, 60, 90 and 120 minutes. Metabolic oxidation-reduction activity is detected by an increase in OD in this colorimetric assay.

[2] = system: Candida albicans; assay: Effect of antifungal compounds on fungal cells with Alamar Blue (fluorimetric metabolic oxidation-reduction indicator dye assay); type: cell-based; details: for characteristic "fingerprint" with metabolic oxidation-reduction indicator dye (statement on negative controls): for fungal cells, summary statement; for characteristic pattern or "fingerprint": increased metabolic oxidation-reduction activity (Alamar Blue fluorescence) relative to untreated control cells: Candida albicans 1x10^7 cells/mL, test compound two-fold dilutions from 64 μg/mL, 37° C., readings 0-60 min, best seen at 15 min (FIG. 2)
Excerpt: Alamar Blue™ is an indicator dye formulated to measure quantitatively the proliferation of a variety of human or animal cells, bacteria, or fungi. It consists of an oxidation-reduction (REDOX) indicator that yields colorimetric and fluorimetric changes in response to metabolic activity (electron transport activity).
The relative effect of two BPI-derived peptides, XMP.391 (SEQ ID NO: 4) and XMP.445 (SEQ ID NO: 6), and the antifungal compound amphotericin B on fungal cells with the metabolic oxidation-reduction indicator dye Alamar Blue™ [AccuMed Int'l, Westlake, Ohio] was assessed as follows.
Candida albicans were grown in 75 mL Sabouraud's dextrose broth (SDB) for 5 hours at 30° C. Cells were pelleted by centrifiguation for 5 minutes in a Sorvall RT6000B centrifuge at 3,000 rpm (1500×g) and resuspended in 15 mL of fresh SDB. A 1:10 dilution of this suspension was used for an OD570 nm detennination. One OD unit is equivalent to 1×10^7 CFU/mL. Cells were adjusted to a concentration of 2×10^7 CFU/mL.
Test compounds XMP.391, XMP.445 and Amphotericin B (AMB) were two-fold serially diluted in SDB from a concentration of 128 μg/mL in a 96-well plate. This was done in triplicate with each well containing a volume of 100 μL. An equal volume of the yeast suspension was added to each well.
Alamar Blue™ was added at 20 μL per well and the initial (t=0) fluorescence readings were performed in a Molecular Devices SpectraMax Gemini plate reader. The excitation wavelength was 544 nm and the emission wavelength was measured at 590 nm. The plate was incubated at 37° C. and additional readings at 15, 30, 45 and 60 minutes were performed. Metabolic oxidation-reduction activity is detected by an increase in fluorescence emission.

[3] = system: bacterial growth; details: background statement on narrow therapeutic window; cited from earlier work
[4] = background statement on narrow therapeutic window; cited from earlier work

Compound	characteristic "fingerprint" with metabolic oxidation-reduction indicator dye (statement on negative controls) [2]	characteristic pattern or "fingerprint": increased metabolic oxidation-reduction activity (Alamar Blue fluorescence) relative to untreated control cells [2]	other results
polymyxin			characteristic "fingerprint" with metabolic oxidation-reduction indicator dye (statement on negative controls) [1]: do not exhibit the characteristic “fingerprint,”
antimycin	do not exhibit the characteristic “fingerprint,”		
gentamicin			concentration required to produce a therapeutic effect [3]: 8 µg/mL; concentration that produces a toxic effect [4]: 12000 ng/mL
OC(Cn1cncn1)(Cn1cncn1)c1ccc(F)cc1F [fluconazole]	do not exhibit the characteristic “fingerprint,”		
XMP.391: BPI-derived peptide, domain III-derived, SEQ ID NO: 4; structure described in Table 1 of U.S. Pat. No. 5,858,974 (KVGWLIQLFHKK)		known to produce this characteristic pattern	
C[C@@H]1[C@H](O)[C@@H](C)/C=C/C=C/C=C/C=C/C=C/C=C/C=C/[C@H](O[C@@H]2O[C@H](C)[C@@H](O)[C@H](N)[C@@H]2O)C[C@@H]2O[C@](O)(C[C@@H](O)C[C@@H](O)[C@H](O)CC[C@@H](O)C[C@@H](O)CC(=O)O[C@H]1C)C[C@H](O)[C@H]2C(=O)O [amphotericin B]	do not exhibit the characteristic “fingerprint,”	did not show the “fingerprint.”	
